Patent EP4039094A1, “NOVEL ANTIFUNGAL COMPOUNDS” (Max-Planck-Gesellschaft zur Förderung der Wissenschaften …, priority 2021, dated 2022)

Assays:
[1] = molecular target: T1, Stp1/Stp4/Stp3 subcomplex (Mycosarcoma maydis, UniProt A0A0D1C5E3+A0A0D1CU07+A0A0D1EAN2); test: Beta-Glo confirmatory assay (β-galactosidase expression) in NL73; assay type: cell-based, U. maydis; conditions: NL73 strain, Table 5; read-out: B-glo IC50
T1 sequence (A0A0D1CU07 29-515): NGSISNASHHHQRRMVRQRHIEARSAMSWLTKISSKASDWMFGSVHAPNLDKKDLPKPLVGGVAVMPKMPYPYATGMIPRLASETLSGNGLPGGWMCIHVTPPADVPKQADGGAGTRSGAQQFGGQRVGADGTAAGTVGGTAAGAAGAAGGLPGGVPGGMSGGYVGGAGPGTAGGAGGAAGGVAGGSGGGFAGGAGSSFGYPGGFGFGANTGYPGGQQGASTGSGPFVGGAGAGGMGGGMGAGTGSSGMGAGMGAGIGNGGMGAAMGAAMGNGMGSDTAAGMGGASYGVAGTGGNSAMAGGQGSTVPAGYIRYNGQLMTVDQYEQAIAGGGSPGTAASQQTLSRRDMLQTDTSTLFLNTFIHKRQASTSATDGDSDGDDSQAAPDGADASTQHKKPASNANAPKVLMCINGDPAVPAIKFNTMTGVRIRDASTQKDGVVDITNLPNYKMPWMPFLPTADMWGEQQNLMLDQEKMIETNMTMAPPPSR
T1 sequence (A0A0D1C5E3 24-129): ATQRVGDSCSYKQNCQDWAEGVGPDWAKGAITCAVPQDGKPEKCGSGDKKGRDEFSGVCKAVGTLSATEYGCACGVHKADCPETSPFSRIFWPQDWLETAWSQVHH
T1 sequence (A0A0D1EAN2 25-327): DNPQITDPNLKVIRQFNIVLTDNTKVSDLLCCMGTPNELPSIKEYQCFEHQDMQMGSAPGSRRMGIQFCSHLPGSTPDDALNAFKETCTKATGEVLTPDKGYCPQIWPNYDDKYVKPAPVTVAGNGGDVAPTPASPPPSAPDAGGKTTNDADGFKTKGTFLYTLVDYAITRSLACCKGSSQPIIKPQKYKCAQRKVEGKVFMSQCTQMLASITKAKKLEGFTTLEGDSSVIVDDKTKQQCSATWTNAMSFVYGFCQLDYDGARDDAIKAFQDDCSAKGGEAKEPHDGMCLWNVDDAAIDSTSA
Experimental: This system allows luminescence-based quantification of β-galactosidase expression in cells which serves as a readout for promoter activation by interacting complex members Stp1, Stp3 and Stp4. Overnight cultures of NL73 and NL70 strains were harvested as described above. Dilution series of compound stock solution were pre-dispensed into black 384-well assay plates (Corning 4513) using Echo520 Nanoliter dispenser starting from 10 µM with 3-fold dilution over 8 steps. In the viability setup, 15 µl of NL73 cell suspension were dispensed into the assay plates using Multidrop Combi. One column of the assay plate was filled with 15 µl of NL70 cell suspension. In the toxicity setup, 15 µl of NL70 cell suspension in low stringency medium were dispensed into the assay plates with one column being filled with 15 µl of NL70 cell suspension in high stringency medium. Plates were sealed with Breathe-Easy sealing membrane, lidded and incubated in a humid chamber over night at 30°C and 140 rpm in an Infors HT Multitron Pro. After approximately 19 h, plates were centrifuged for 1 min at 500 rpm. 4 µl of Beta-Glo assay solution were added using Multidrop Combi. The plates were sealed again and incubated for 2.5 h at room temperature, unlidded. Luminescence readout was determined on a Spectramax Paradigm detection platform for 0.2 s. Dose response data was analysed with Quattro Software Suite.

[2] = molecular target: T1, Stp1/Stp4/Stp3 subcomplex; test: Alamar Blue viability assay in S. cerevisiae 2-hybrid strain NL73 (viability depends on Stp complex formation); assay type: cell-based, U. maydis; conditions: for activity in the Alamar Blue assay with NL73: result in words
From the text: To develop a screening platform based on Stp complex formation, a Saccharomyces cerevisiae 2-hybrid system was used. […] After co-transformation, reporter gene transcription is activated only if the two fusion proteins interact in the yeast nucleus. Moreover, the S. cerevisiae strain AH109 harbours the reporter genes ADE2 and HIS3, which encode for two enzymes that are crucial for adenine (Ade) and histidine (His) biosynthesis and thereby enable nutritional selection as a read-out for the interaction between proteins. In the following experiments, growth on high-stringency synthetic defined (SD) medium (SD -Leu -Trp -Ade -His) was used to identify if the complex members interact between them causing expression of ADE2 and HIS3. Additionally, strains were also grown on low-stringency medium (SD -Leu -Trp) to confirm their viability. […] All experiments were done with three independent transformants to exclude false positives due to spontaneous mutations.
The S. cerevisiae strain AH109 from Clontech (Saint-Germain-en-Laye, France) is auxotrophic for tryptophan, leucine, adenine and histidine. In addition, lacz is under control of the MEL1 UAS to be used as readout for quantitative β-galactosidase assays.
The resulting test strain NL73 (AD-Stp4/BD-Stp1/myc-Stp3) expresses the Stp1/Stp4/Stp3 subcomplex. NL73 carries the following three plasmids: pGBKT7-stp1: pGBKT7 vector expressing proteins fused to the GAL4 DNA binding domain (DNA-BD). pGBKT7 also contains the T7 promoter, a c-Myc epitope tag, and a MCS. The vector carries a Kanamycin resistance gene (Kanr) for selection in E. coli and the TRP1 nutritional marker for selection in yeast. pGAD-stp4: pGADT7 vector expressing proteins fused to a GAL4 activation domain (AD). The GAL4 AD fusion contains an N-terminal nuclear localization signal that targets the protein to the yeast nucleus, and a HA Tag, located between the GAL4 AD and the protein of interest. The vector carries an ampicillin resistance gene (Ampr) for selection in E. coli and a LEU2 nutritional marker for selection in yeast. pYEA-stp3-myc: pYEA vector expressing proteins under the control of the phosphoglycerate kinase promoter. The vector carries an ampicillin resistance gene (Ampr) for selection in E. coli and an ADE2 nutritional marker for selection in yeast. As control strain, NL70 containing empty vectors was generated (AH109Δabc9 pGAD::LEU2 pGBK::TRP1 pYEA::ADE2).
After that, 25 µl of NL73 cell suspension were dispensed into the assay plates using Multidrop Combi (Thermofisher Scientific) giving a final screening concentration of 10 µM. One column of the assay plate was filled with 25 µl of NL70 control strain cell suspension as negative control. Plates were sealed with Breathe-Easy sealing membrane (Sigma, Z380059), lidded and incubated in a humid chamber over night at 30°C and 140 rpm in an HT Multitron Pro (Infors). […] For the viability assay, the alamar Blue HS Cell Viability reagent (Invitrogen, #A50101) was pre-diluted using an equal amount of dVE-H2O and 5 µl of diluted Alamar Blue were added to the screening plates using Multidrop Combi. The plates were sealed again and incubated for 4 h at room temperature, unlidded. […] Screening data was normalized to DMSO-treated NL73 cells (that received DMSO in the same concentration as in samples where compounds dissolved in DMSO were added) being 100% and DMSO-treated NL70 cells representing 0% viability and analyzed with Quattro Software Suite (Quattro Research GmbH).

[3] = NL73 strain, Table 5, read-out: A-blue IC50

Row | Compound | IC50 [1] | IC50 [2, 3] | activity in the Alamar Blue assay with NL73 [2] | IC50 ([2]; read-out: IC50 in the Alamar Blue viability assay of NL73) | IC50 ([2]; inhibitory activity on NL73 viability, Table 6, read-out: IC50)
1 | Cc1ccc(-c2c(-c3ccc(C)cc3)[n+]([O-])c3ccccn23)cc1 [Compound 1-A] | 760 nM | 140 nM | nanomolar potency |  | 
2 | CC(C)n1ncc2cc(NS(=O)(=O)c3cc(F)ccc3F)cnc21 [Compound 1-B] |  |  |  | 2500 nM | 
3 | Cc1ccc(CSc2nc(=O)n(C3CCCC3)c3c2CCC3)cc1 [Compound 1-C] |  |  | active in the nanomolar range |  | 670 nM
4 | [O-][n+]1c(-c2ccc(C(F)(F)F)cc2)c(-c2ccc(C(F)(F)F)cc2)n2ccccc21 [Compound 2-A] | 230 nM | 20 nM |  |  | 
5 | O=[N+]([O-])c1ccc(-c2c(-c3ccccc3)n3ccccc3[n+]2[O-])cc1 [Compound 3-A] | 860 nM | 250 nM |  |  | 
